US20240425491A1, “HETEROARYL COMPOUNDS USEFUL IN THE TREATMENT OF COGNITIVE DISORDERS” (University College Cardiff Consultants Limited, priority 2021, published 2024)

Key:
[1] = molecular target: T1, human α5β3γ2 GABAARs in mouse L(tk−) cells (Homo sapiens, UniProt P18507+P31644); test: In vitro electrophysiological recording assay (α5-GABAAR relative efficacy), QPatch; type: cell-based; details: GABA EC10-20
T1 construct: expressed in transfected cells; host or cells: mouse L(tk−) cells, dexamethasone-inducible vector pMSGneo
Summary of the method: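 Whole-cell QPatch recordings at 20-22° C, −65 mV holding, in dexamethasone-induced (1 μM, 24 h) L(tk−) cells. Compound pre-applied ≥1 min, then co-applied with GABA EC10-20; percentage change in leak-corrected peak current, taken at ≥100× Ki, normalised to DMCM efficacy; 0.1% DMSO final.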

[2] = molecular target: T2, human recombinant GABAAR containing α5β3γ2 subunits (benzodiazepine site) (Homo sapiens, UniProt P18507+P31644); test: In vitro radioligand binding assay (α5-GABAAR Ki); details: inhibition of [3H]Ro15-1788 binding, membranes of L(tk−) cells expressing human α5β3γ2; read-out: α5-GABAAR Ki
T2 construct: expressed in transfected cells; host or cells: mouse L(tk−) cells, dexamethasone-inducible vector pMSGneo
Summary of the method: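 Displacement of 4 nM [^3H]flumazenil from the benzodiazepine site, read by filtration and scintillation, gave IC50, converted to Ki (Cheng-Prusoff, saturation-derived Kd). Receptor: human α5β3γ2 membranes from L(tk^−) cells, 50 μg protein/well; 1 h, 4° C; TP003 1 μM defined nonspecific binding.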

T2 sequence (P31644 32-462): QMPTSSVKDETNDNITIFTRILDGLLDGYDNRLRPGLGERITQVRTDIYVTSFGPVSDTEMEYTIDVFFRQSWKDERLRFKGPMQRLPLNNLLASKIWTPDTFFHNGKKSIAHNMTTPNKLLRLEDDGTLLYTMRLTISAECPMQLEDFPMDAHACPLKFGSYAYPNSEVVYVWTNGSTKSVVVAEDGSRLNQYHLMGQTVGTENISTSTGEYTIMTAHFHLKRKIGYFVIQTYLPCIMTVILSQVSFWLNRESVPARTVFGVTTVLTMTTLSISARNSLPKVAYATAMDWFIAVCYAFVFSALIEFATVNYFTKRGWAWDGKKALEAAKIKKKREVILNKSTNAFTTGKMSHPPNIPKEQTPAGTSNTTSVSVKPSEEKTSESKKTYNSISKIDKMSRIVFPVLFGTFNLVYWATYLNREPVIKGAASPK
T2 sequence (P28472 26-473 partner): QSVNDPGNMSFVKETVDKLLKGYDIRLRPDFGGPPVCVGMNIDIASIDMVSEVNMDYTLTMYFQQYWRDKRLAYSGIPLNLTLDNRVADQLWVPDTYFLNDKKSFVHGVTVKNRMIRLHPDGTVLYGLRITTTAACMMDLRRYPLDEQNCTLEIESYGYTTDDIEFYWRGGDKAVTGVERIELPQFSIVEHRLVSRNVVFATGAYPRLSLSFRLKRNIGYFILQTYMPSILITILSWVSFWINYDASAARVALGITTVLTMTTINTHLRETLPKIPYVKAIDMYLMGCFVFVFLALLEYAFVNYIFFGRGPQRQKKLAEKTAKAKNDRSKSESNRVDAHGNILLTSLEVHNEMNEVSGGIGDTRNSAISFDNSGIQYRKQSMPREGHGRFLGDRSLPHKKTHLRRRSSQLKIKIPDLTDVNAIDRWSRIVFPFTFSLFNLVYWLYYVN
T2 sequence (P18507 40-475): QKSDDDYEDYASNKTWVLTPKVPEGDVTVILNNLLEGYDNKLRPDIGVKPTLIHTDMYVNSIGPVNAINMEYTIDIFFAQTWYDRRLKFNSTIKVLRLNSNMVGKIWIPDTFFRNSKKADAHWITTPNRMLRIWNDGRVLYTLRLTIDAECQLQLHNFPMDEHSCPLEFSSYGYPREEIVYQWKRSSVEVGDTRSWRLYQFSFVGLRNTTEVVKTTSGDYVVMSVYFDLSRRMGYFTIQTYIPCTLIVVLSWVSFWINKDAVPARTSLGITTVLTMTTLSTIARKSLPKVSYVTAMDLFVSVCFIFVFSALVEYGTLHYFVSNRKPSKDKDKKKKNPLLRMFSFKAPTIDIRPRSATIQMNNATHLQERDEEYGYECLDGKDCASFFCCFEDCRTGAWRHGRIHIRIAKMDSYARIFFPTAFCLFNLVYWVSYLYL
T1 sequence (P31644 32-462): as the sequence (P31644 32-462) above
T1 sequence (P28472 26-473 partner): as the sequence (P28472 26-473 partner) above
T1 sequence (P18507 40-475): as the sequence (P18507 40-475) above

SMILES | Ki [2] [nM] | α5-GABAAR Relative Efficacy (to DMCM), Qpatch ([1]; Conc 3 μM) | further results
COc1nc(-c2ccc(CO)nc2)cnc1NC(=O)c1c(-c2ccccc2)noc1C [Example 148, N-[5-[6-(Hydroxymethyl)-3-pyridyl]-3-methoxy-pyrazin-2-yl]-5-methyl-3-phenyl-isoxazole-4-carboxamide] | 1.2 | – | α5-GABAAR Relative Efficacy (to DMCM), Qpatch ([1]; Conc 0.3 μM): −0.80
COc1nc(-c2ccc(=O)n(C)c2)cnc1NC(=O)c1c(-c2ccccc2)noc1C [Example 149, N-[3-Methoxy-5-(1-methyl-6-oxo-3-pyridyl)pyrazin-2-yl]-5-methyl-3-phenyl-isoxazole-4-carboxamide] | 5.2 | – | α5-GABAAR Relative Efficacy (to DMCM), Qpatch ([1]; Conc 1 μM): −0.66
COc1nc(-c2cnc(N)cn2)cnc1NC(=O)c1c(-c2ccccc2)noc1C [Example 150, N-[5-(5-Aminopyrazin-2-yl)-3-methoxy-pyrazin-2-yl]-5-methyl-3-phenyl-isoxazole-4-carboxamide] | 5.1 | – | α5-GABAAR Relative Efficacy (to DMCM), Qpatch ([1]; Conc 1 μM): −0.83
COc1nc(-n2ccnc2)ccc1NC(=O)c1c(C)nnn1-c1ccccc1 [Example 151, N-(6-(1H-Imidazol-1-yl)-2-methoxypyridin-3-yl)-4-methyl-1-phenyl-1H-1,2,3-triazole-5-carboxamide] | 45.1 | −0.89 | –
COc1nc(-n2cnc(CN(C)C)c2)ccc1NC(=O)c1c(-c2ccccc2)noc1C [Example 152, N-[6-[4-[(Dimethylamino)methyl]imidazol-1-yl]-2-methoxy-3-pyridyl]-5-methyl-3-phenyl-isoxazole-4-carboxamide] | 22.9 | −0.27 | –
COc1nc(-n2cncc2CN(C)C)ccc1NC(=O)c1c(-c2ccccc2)noc1C [Example 153, N-[6-[5-[(Dimethylamino)methyl]imidazol-1-yl]-2-methoxy-3-pyridyl]-5-methyl-3-phenyl-isoxazole-4-carboxamide] | 1.7 | – | α5-GABAAR Relative Efficacy (to DMCM), Qpatch ([1]; Conc 0.3 μM): −0.83
COc1nc(-n2ccnc2)ccc1NC(=O)c1c(-c2ccccc2)nnn1C [Example 154, N-(6-(1H-Imidazol-1-yl)-2-methoxypyridin-3-yl)-1-methyl-4-phenyl-1H-1,2,3-triazole-5-carboxamide] | 25.3 | −0.89 | –
COc1nc(-c2cnc3n2CCOC3)cnc1NC(=O)c1c(-c2ccccc2)noc1C [Example 155, N-[5-(6,8-Dihydro-5H-imidazo[2,1-c][1,4]oxazin-3-yl)-3-methoxy-pyrazin-2-yl]-5-methyl-3-phenyl-isoxazole-4-carboxamide] | 2.3 | – | α5-GABAAR Relative Efficacy (to DMCM), Qpatch ([1]; Conc 0.3 μM): −0.91
COc1nc(-c2ccc(CO)nc2)ccc1NC(=O)c1c(C)nnn1-c1ccccc1 [Example 160, N-(6′-(Hydroxymethyl)-6-methoxy-[2,3′-bipyridin]-5-yl)-4-methyl-1-phenyl-1H-1,2,3-triazole-5-carboxamide] | 28 | −0.77 | –
COc1nc(-c2cnc(CN(C)C)nc2)ccc1NC(=O)c1c(C)nnn1-c1ccccc1 [Example 161, N-(6-(2-((Dimethylamino)methyl)pyrimidin-5-yl)-2-methoxypyridin-3-yl)-4-methyl-1-phenyl-1H-1,2,3-triazole-5-carboxamide] | 61.5 | – | α5-GABAAR Relative Efficacy (to DMCM), Qpatch ([1]; Conc 10 μM): −0.71
CCOc1ncc(-c2ccc(NC(=O)c3c(C)nnn3-c3ccccc3)c(OC)n2)cn1 [Example 162, N-(6-(2-Ethoxypyrimidin-5-yl)-2-methoxypyridin-3-yl)-4-methyl-1-phenyl-1H-1,2,3-triazole-5-carboxamide] | 33.6 | −0.90 | –
COc1nc(-c2cnc(OCCN(C)C)nc2)ccc1NC(=O)c1c(-c2ccccc2)noc1C [Example 163, N-[6-[2-[2-(Dimethylamino)ethoxy]pyrimidin-5-yl]-2-methoxy-3-pyridyl]-5-methyl-3-phenyl-isoxazole-4-carboxamide] | 4.1 | – | α5-GABAAR Relative Efficacy (to DMCM), Qpatch ([1]; Conc 1 μM): −1.11
COc1nc(-c2c[nH]c(=O)c(F)c2)ccc1NC(=O)c1c(C)nnn1-c1ccccc1 [Example 164, N-(5′-Fluoro-6-methoxy-6′-oxo-1′,6′-dihydro-[2,3′-bipyridin]-5-yl)-4-methyl-1-phenyl-1H-1,2,3-triazole-5-carboxamide] | 27.2 | −0.65 | –
COc1nc(-c2cnc(C(N)=O)nc2)ccc1NC(=O)c1c(C)nnn1-c1ccccc1 [Example 165, 5-(6-Methoxy-5-(4-methyl-1-phenyl-1H-1,2,3-triazole-5-carboxamido)pyridin-2-yl)pyrimidine-2-carboxamide] | 35.4 | −0.84 | –
CNc1ncc(-c2ccc(NC(=O)c3c(C)nnn3-c3ccccc3)c(OC)n2)cn1 [Example 166, N-(2-Methoxy-6-(2-(methylamino)pyrimidin-5-yl)pyridin-3-yl)-4-methyl-1-phenyl-1H-1,2,3-triazole-5-carboxamide] | 31 | −0.98 | –
COc1nc(-c2cnc(NCCN(C)C)nc2)ccc1NC(=O)c1c(-c2ccccc2)noc1C [Example 167, N-[6-[2-[2-(Dimethylamino)ethylamino]pyrimidin-5-yl]-2-methoxy-3-pyridyl]-5-methyl-3-phenyl-isoxazole-4-carboxamide] | 0.7 | – | α5-GABAAR Relative Efficacy (to DMCM), Qpatch ([1]; Conc 1 μM): −0.92
CNCc1ncc(-c2ccc(NC(=O)c3c(-c4ccccc4)noc3C)c(OC)n2)cn1.Cl [Example 168, N-[2-Methoxy-6-[2-(methylaminomethyl)pyrimidin-5-yl]-3-pyridyl]-5-methyl-3-phenyl-isoxazole-4-carboxamide hydrochloride] | 2.7 | – | α5-GABAAR Relative Efficacy (to DMCM), Qpatch ([1]; Conc 0.3 μM): −0.72
CNCc1ncc(-c2cnc(NC(=O)c3c(-c4ccccc4)noc3C)c(OC)n2)cn1.Cl [Example 169, N-[3-Methoxy-5-[2-(methylaminomethyl)pyrimidin-5-yl]pyrazin-2-yl]-5-methyl-3-phenyl-isoxazole-4-carboxamide hydrochloride] | 5.2 | – | α5-GABAAR Relative Efficacy (to DMCM), Qpatch ([1]; Conc 1 μM): −0.88
CNCCNc1ncc(-c2ccc(NC(=O)c3c(-c4ccccc4)noc3C)c(OC)n2)cn1.Cl [Example 170, N-[2-Methoxy-6-[2-[2-(methylamino)ethylamino]pyrimidin-5-yl]-3-pyridyl]-5-methyl-3-phenyl-isoxazole-4-carboxamide hydrochloride] | 0.5 | – | α5-GABAAR Relative Efficacy (to DMCM), Qpatch ([1]; Conc 0.1 μM): −0.84
COc1nc(-c2cnc(NCCN)nc2)ccc1NC(=O)c1c(-c2ccccc2)noc1C.Cl [Example 171, N-[6-[2-(2-Aminoethylamino)pyrimidin-5-yl]-2-methoxy-3-pyridyl]-5-methyl-3-phenyl-isoxazole-4-carboxamide hydrochloride] | 3.8 | – | α5-GABAAR Relative Efficacy (to DMCM), Qpatch ([1]; Conc 0.1 μM): −0.75
COc1nc(-c2cnc(C(=O)NCCN(C)C)nc2)ccc1NC(=O)c1c(-c2ccccc2)noc1C [Example 172, N-[6-[2-[2-(Dimethylamino)ethylcarbamoyl]pyrimidin-5-yl]-2-methoxy-3-pyridyl]-5-methyl-3-phenyl-isoxazole-4-carboxamide] | 0.2 | – | α5-GABAAR Relative Efficacy (to DMCM), Qpatch ([1]; Conc 0.1 μM): −0.80
CNCCNC(=O)c1ncc(-c2ccc(NC(=O)c3c(-c4ccccc4)noc3C)c(OC)n2)cn1.Cl [Example 173, N-[2-Methoxy-6-[2-[2-(methylamino)ethylcarbamoyl]pyrimidin-5-yl]-3-pyridyl]-5-methyl-3-phenyl-isoxazole-4-carboxamide hydrochloride] | 0.3 | – | α5-GABAAR Relative Efficacy (to DMCM), Qpatch ([1]; Conc 0.1 μM): −0.88
COc1nc(-c2ccn3nc(N)nc3c2)ccc1NC(=O)c1c(-c2ccccc2)nnn1C [Example 174, N-(6-(2-Amino-[1,2,4]triazolo[1,5-a]pyridin-7-yl)-2-methoxypyridin-3-yl)-1-methyl-4-phenyl-1H-1,2,3-5-carboxamide] | 1.4 | – | α5-GABAAR Relative Efficacy (to DMCM), Qpatch ([1]; Conc 0.3 μM): −0.84
COc1nc(-c2cnc(NCCO)nc2)ccc1NC(=O)c1c(-c2ccccc2)noc1C [Example 175, N-[6-[2-(2-Hydroxyethylamino)pyrimidin-5-yl]-2-methoxy-3-pyridyl]-5-methyl-3-phenyl-isoxazole-4-carboxamide] | 0.5 | – | α5-GABAAR Relative Efficacy (to DMCM), Qpatch ([1]; Conc 0.1 μM): −0.89
Cc1onc(-c2ccccc2)c1C(=O)Nc1ccc(-n2ccnc2)nc1N(C)C [Example 176, N-[2-(Dimethylamino)-6-imidazol-1-yl-3-pyridyl]-5-methyl-3-phenyl-isoxazole-4-carboxamide] | 9 | – | α5-GABAAR Relative Efficacy (to DMCM), Qpatch ([1]; Conc 1 μM): −0.36
COc1nc(-n2cnc3c2CCNC3)ccc1NC(=O)c1c(-c2ccccc2)noc1C.Cl [Example 178, N-[2-methoxy-6-(4,5,6,7-tetrahydroimidazo[4,5-c]pyridin-1-yl)-3-pyridyl]-5-methyl-3-phenyl-isoxazole-4-carboxamide hydrochloride] | 2 | – | α5-GABAAR Relative Efficacy (to DMCM), Qpatch ([1]; Conc 0.3 μM): −0.62
CNCc1ccc(-c2ccc(NC(=O)c3c(-c4ccccc4)noc3C)c(OC)n2)cc1.Cl [Example 183, N-[2-Methoxy-6-[4-(methylaminomethyl)phenyl]-3-pyridyl]-5-methyl-3-phenyl-isoxazole-4-carboxamide hydrochloride] | 14.2 | −0.68 | –
